Laboratory results reported in patent US7598417B2, “Substituted fluoroethyl ureas as alpha 2 adrenergic agents” (Allergan, Inc., priority 2007, dated 2009).

Legend:
Assay type in all cases: cell-based
alpha2A receptor = target: T1, alpha2A receptor (Homo sapiens, UniProt P08913); assay: Receptor Selection and Amplification Technology (RSAT) assay, alpha2A; details: for EC50 / Alpha 2A EC50: RSAT, NIH-3T3 cells cotransfected with receptor and Gq/i5, not active = not active at concentrations less than 10 micromolar; for EC50: read-out: Alpha 2A EC50; for Alpha 2A IA (intrinsic activity): ratio of maximal effect of the drug to maximal effect of standard full agonist brimonidine (UK14304)
T1 construct: expressed in transfected cells; host or cells: NIH-3T3
T1 sequence (P08913 1-465): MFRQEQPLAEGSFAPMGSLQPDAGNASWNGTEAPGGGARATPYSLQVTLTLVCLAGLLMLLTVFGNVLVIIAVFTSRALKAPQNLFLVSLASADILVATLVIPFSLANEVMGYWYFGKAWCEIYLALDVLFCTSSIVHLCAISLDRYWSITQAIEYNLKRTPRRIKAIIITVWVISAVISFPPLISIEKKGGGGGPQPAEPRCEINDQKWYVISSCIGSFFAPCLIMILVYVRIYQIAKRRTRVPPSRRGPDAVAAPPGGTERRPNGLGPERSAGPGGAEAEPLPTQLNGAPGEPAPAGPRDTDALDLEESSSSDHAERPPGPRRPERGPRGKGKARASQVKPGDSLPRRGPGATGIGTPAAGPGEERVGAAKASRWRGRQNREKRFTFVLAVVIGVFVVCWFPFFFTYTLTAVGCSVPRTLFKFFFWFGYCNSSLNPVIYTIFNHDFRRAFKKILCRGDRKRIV
Procedure: (§1) Receptor Selection and Amplification Technology (RSAT) Assay
(§2) The RSAT assay measures a receptor-mediated loss of contact inhibition that results in selective proliferation of receptor-containing cells in a mixed population of confluent cells. The increase in cell number is assessed with an appropriate transfected marker gene such as β-galactosidase, the activity of which can be easily measured in a 96-well format. Receptors that activate the G protein, Gq, elicit this response. Alpha2 receptors, which normally couple to Gi, activate the RSAT response when coexpressed with a hybrid Gq protein that has a Gi receptor recognition domain, called Gq/i5.
(§3) NIH-3T3 cells are plated at a density of 2×10^6 cells in 15 cm dishes and maintained in Dulbecco's modified Eagle's medium supplemented with 10% calf serum. One day later, cells are cotransfected by calcium phosphate precipitation with mammalian expression plasmids encoding p-SV-β-galactosidase (5-10 μg), receptor (1-2 μg) and G protein (1-2 μg). 40 μg salmon sperm DNA may also be included in the transfection mixture. Fresh media is added on the following day and 1-2 days later, cells are harvested and frozen in 50 assay aliquots. Cells are thawed and 100 μl added to 100 μl aliquots of various concentrations of drugs in triplicate in 96-well dishes. Incubations continue 72-96 hr at 37° C. After washing with phosphate-buffered saline, β-galactosidase enzyme activity is determined by adding 200 μl of the chromogenic substrate (consisting of 3.5 mM o-nitrophenyl-β-D-galactopyranoside and 0.5% nonidet P-40 in phosphate buffered saline), incubating overnight at 30° C. and measuring optical density at 420 nm. The absorbance is a measure of enzyme activity, which depends on cell number and reflects a receptor-mediated cell proliferation. The efficacy or intrinsic activity is calculated as a ratio of the maximal effect of the drug to the maximal effect of a standard full agonist for each receptor subtype. Brimonidine, also called UK14304, the chemical structure of which is shown below, is used as the standard agonist for the alpha2A, alpha2B and alpha2C receptors. The EC50 is the concentration at which the drug effect is half of its maximal effect.
(§4) EC50 values are nanomolar. NA stands for “not active” at concentrations less than 10 micromolar. IA stands for “intrinsic activity.”

alpha2C receptor = target: T2, alpha2C receptor (Homo sapiens, UniProt P18825); assay: Receptor Selection and Amplification Technology (RSAT) assay, alpha2C; details: for EC50 / Alpha 2C EC50: RSAT, NIH-3T3 cells cotransfected with receptor and Gq/i5, not active = not active at concentrations less than 10 micromolar; for EC50: read-out: Alpha 2C EC50; for Alpha 2C IA (intrinsic activity): ratio of maximal effect of the drug to maximal effect of standard full agonist brimonidine (UK14304)
T2 construct: expressed in transfected cells; host or cells: NIH-3T3
T2 sequence (P18825 1-462): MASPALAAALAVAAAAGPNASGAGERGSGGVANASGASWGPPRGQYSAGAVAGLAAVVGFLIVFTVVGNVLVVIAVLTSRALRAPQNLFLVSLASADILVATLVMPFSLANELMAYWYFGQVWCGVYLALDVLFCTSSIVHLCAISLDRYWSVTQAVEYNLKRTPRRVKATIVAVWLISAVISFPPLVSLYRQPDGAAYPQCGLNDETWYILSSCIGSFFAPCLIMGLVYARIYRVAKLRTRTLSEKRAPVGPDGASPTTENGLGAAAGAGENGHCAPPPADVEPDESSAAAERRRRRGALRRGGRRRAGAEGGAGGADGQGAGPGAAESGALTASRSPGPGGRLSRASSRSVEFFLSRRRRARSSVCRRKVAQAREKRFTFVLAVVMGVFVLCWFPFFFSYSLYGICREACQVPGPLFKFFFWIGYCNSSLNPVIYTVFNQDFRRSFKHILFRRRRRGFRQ
Procedure: as §1, §2, §3, §4

alpha2B receptor = target: T3, alpha2B receptor (Homo sapiens, UniProt P18089); assay: Receptor Selection and Amplification Technology (RSAT) assay, alpha2B; details: for EC50: RSAT, NIH-3T3 cells cotransfected with receptor and Gq/i5, not active = not active at concentrations less than 10 micromolar, read-out: Alpha 2B EC50; for Alpha 2B IA (intrinsic activity): ratio of maximal effect of the drug to maximal effect of standard full agonist brimonidine (UK14304)
T3 construct: expressed in transfected cells; host or cells: NIH-3T3
T3 sequence (P18089 1-450): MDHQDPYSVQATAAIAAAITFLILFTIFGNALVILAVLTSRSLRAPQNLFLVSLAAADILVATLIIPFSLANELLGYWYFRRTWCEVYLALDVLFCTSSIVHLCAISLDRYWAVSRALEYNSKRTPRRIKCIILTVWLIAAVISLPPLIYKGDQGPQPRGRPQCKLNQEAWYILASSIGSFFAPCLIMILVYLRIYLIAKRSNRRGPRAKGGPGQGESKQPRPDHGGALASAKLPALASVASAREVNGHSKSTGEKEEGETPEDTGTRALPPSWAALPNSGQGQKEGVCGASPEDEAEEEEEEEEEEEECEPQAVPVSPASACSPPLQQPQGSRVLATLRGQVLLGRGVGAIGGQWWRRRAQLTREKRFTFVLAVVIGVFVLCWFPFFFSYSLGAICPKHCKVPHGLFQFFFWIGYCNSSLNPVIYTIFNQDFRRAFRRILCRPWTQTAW
Procedure: as §1, §2, §3
The results of the RSAT assay with several exemplary compounds of the invention are disclosed in Table 1 above together with the chemical formulas of these exemplary compounds. EC50 values are nanomolar. NA stands for “not active” at concentrations less than 10 micromolar. IA stands for “intrinsic activity.”

Compound | EC50 (alpha2A receptor) | Alpha 2A IA (intrinsic activity) (alpha2A receptor) | EC50 (alpha2C receptor) | Alpha 2C IA (intrinsic activity) (alpha2C receptor) | EC50 (alpha2B receptor) | Alpha 2B IA (intrinsic activity) (alpha2B receptor) | Alpha 2A EC50 (alpha2A receptor) | Alpha 2C EC50 (alpha2C receptor)
O=C(NCCF)NC1CCc2ncccc21 (stereo not shown) | 2550 nM | 0.55 | 2460 nM | 0.41 | 100 nM | 1.08 | – | –
O=C(NCCF)NC1CCc2c(F)cccc21 (stereo not shown) | 130 nM | 0.76 | 107 nM | 0.68 | 1.8 nM | 1.05 | – | –
Cc1ccc2c(c1)CC(NC(=O)NCCF)C2 (stereo not shown) | – | – | – | – | 637 nM | 0.6 | not active | not active
O=C(NCCF)NC1CCc2cccc(Cl)c21 (stereo not shown) | 29 nM | 0.68 | 103 nM | 0.78 | 7.2 nM | 1.05 | – | –
CC1CCC(NC(=O)NCCF)c2ccccc21 (stereo not shown) | 331 nM | 0.34 | 282 nM | 0.45 | 21 nM | 0.89 | – | –
O=C(NCCF)NC1Cc2cccc(F)c2C1 (stereo not shown) | – | – | 182 nM | 0.32 | 21 nM | 0.68 | not active | –
COc1ccc2c(c1)C(NC(=O)NCCF)CC2 (stereo not shown) | – | – | 1460 nM | 0.31 | 300 nM | 0.81 | not active | –
O=C(NCCF)NC1CCCc2c(Br)cccc21 (stereo not shown) | 146 nM | 0.41 | 204 nM | 0.53 | 20.3 nM | 0.91 | – | –
O=C(NCCF)NC1C=C(CO)CCC1 (stereo not shown) | – | – | 2600 nM | 0.4 | 1260 nM | 0.58 | not active | –
Cc1ccc2c(c1)C(NC(=O)NCCF)CC2 (stereo not shown) | – | – | 807 nM | 0.31 | 32 nM | 0.88 | not active | –
O=C(NCCF)NC1Cc2ccc(F)cc2C1 (stereo not shown) | – | – | – | – | 2200 nM | 0.93 | not active | not active
O=C(NCCF)NC1CCc2cc(Cl)ccc21 (stereo not shown) | – | – | – | – | 845 nM | 0.31 | not active | not active
Cc1cccc2c1C(NC(=O)NCCF)CC2 (stereo not shown) | 189 nM | 0.43 | 197 nM | 0.62 | 26.8 nM | 0.6 | – | –
CC1=C(C)C(NC(=O)NCCF)CCC1 (stereo not shown) | – | – | 513 nM | 0.52 | 19.7 nM | 0.76 | not active | –
